Measurements reported in patent US20260184712A1, “Heterocyclic Compounds as ENT Inhibitors and Compounds for Use in the Treatment of Cancers” (iTeos Belgium SA, priority 2022, published 2026).

Experiments:
human ENT1 = target: T1, human ENT1 (Homo sapiens, UniProt Q99808); assay: Uridine transport inhibition assay, ENT1-mediated uptake in MDCKII cells; assay type: cell-based; details: MDCKIIENT1-LV cells, probe uridine 1 μM, pre-incubation 30 min, incubation 1 min
T1 construct: JAR cells expressing ENT1 were purchased from ATCC; host or cells: JAR cells
T1 sequence (Q99808 1-456): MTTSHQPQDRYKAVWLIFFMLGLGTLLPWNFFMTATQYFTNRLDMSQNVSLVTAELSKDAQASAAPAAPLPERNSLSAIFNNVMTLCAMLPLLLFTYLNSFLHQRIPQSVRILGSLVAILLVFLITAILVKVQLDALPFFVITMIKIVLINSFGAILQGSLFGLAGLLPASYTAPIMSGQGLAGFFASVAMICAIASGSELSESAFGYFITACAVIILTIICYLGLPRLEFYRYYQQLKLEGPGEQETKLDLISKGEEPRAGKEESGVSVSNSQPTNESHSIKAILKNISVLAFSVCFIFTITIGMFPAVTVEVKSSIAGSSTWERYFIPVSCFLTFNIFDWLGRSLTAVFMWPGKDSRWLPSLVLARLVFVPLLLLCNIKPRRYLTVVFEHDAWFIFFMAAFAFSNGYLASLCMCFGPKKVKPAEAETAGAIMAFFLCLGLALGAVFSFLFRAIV
Protocol: The goal of this study was to determine the potency and selectivity of ENT1 inhibitors by measuring ENT1 and ENT2-mediated transport using an in vitro cellular uptake assay.
Human ENT1 and ENT2 transporters were stably expressed in Madin-Darby Canine Kidney II (MDCKII) cells via transduction. Cell lines overexpressing the relevant ENT1 or ENT2 molecules were preincubated with a dose range of the relevant compound for 30 minutes before introduction of the specific substrate at the concentration indicated in the Table assay parameters below. The transporter assay was conducted for the time specified in the Table assay parameters before the specific uptake of the substrate into the cells was quantified. Specific uptake was determined by comparing the uptake from the cells treated with the relevant compounds and the uptake by cells not overexpressing the transporter in question.
Specific uptake for each concentration of the test sample was normalized to the DMSO control value to generate a relative accumulation value (or relative transporter activity). Data were plotted against the log molar concentration of the test reagent used. IC50 values were generated with Prism version 9.4.1 and the following function: log(inhibitor) vs. response—Variable slope (four parameters).

[1] = system: stimulated primary human T cells; assay: T cell proliferation assay, Condition A (X-VIVO15); assay type: cell-based; details: Homo sapiens, T-cell, 96 h; Condition A: X-VIVO15 medium; anti-CD3/anti-CD28 beads, ATP, 4 days; CFSE-lo T cells
Summary of the method: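 CFSE-labelled human CD3+ T cells (2×10^4/well) in serum-free X-VIVO15 were activated with anti-CD3/CD28 beads (1 bead:2 cells), pre-incubated 30 min with inhibitor, then cultured with 100 uM ATP for 4 days at 37 °C. Flow cytometry measured %CFSE^lo cells, and IC50/IC90 came from log-concentration curve fits.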

| Structure (SMILES) | IC50 (human ENT1) [nM] | IC50 [1] [nM] |
| --- | --- | --- |
| C[C@H]1O[C@@H](n2c(NC3CCOCC3)nc3c(OCc4ccc(OC(F)F)nc4)ncnc32)[C@H](O)[C@@H]1O [Compound 75] | 0.1 to 2 | < 1 |
| C[C@H]1O[C@@H](n2cnc3c(SCc4ccc([N+](=O)[O-])cc4)ncnc32)[C@H](O)[C@@H]1O [Compound 147] | < 0.1 | 1 to 20 |
| C[C@H]1O[C@@H](n2cnc3c(N4CCc5ccc([N+](=O)[O-])cc5C4)ncnc32)[C@H](O)[C@@H]1O [Compound 151] | 0.1 to 2 | < 1 |
| C[C@H]1O[C@@H](n2cnc3c(OCc4ccc([N+](=O)[O-])cc4)ncnc32)[C@H](O)[C@@H]1O [Compound 166] | 0.1 to 2 | 1 to 20 |
| C[C@H]1O[C@@H](n2cnc3c(OCc4ccc(OC(F)F)cc4)ncnc32)[C@H](O)[C@@H]1O [Compound 173] | 0.1 to 2 | 1 to 20 |
| OCCOC[C@H]1O[C@@H](n2cnc3c(OCc4ccc(OC(F)(F)F)cc4)ncnc32)[C@H](O)[C@@H]1O [Compound 175] | 0.1 to 2 | 1 to 20 |

The next lines start with results.

| IC50 (human ENT1) [nM] | Structure (SMILES) | IC50 [1] [nM] |
| --- | --- | --- |
| 0.1 to 2 | C[C@H]1O[C@@H](n2c(NC3CCCC3)nc3c(OCc4ccc([N+](=O)[O-])cc4)ncnc32)[C@H](O)[C@@H]1O [Compound 6] | < 1 |
| 0.1 to 2 | C[C@H]1O[C@@H](n2c(NC3CCC(O)CC3)nc3c(OCc4ccc([N+](=O)[O-])cc4)ncnc32)[C@H](O)[C@@H]1O (some centres unmarked) [Compound 28] | < 1 |
| 0.1 to 2 | C[C@H]1O[C@@H](n2c(NC3CCOCC3)nc3c(OCc4ccc(C#N)cc4)ncnc32)[C@H](O)[C@@H]1O [Compound 73] | < 1 |
| 0.1 to 2 | C[C@H]1O[C@@H](n2c(N[C@H]3CCC(F)(F)C3)nc3c(OCc4ccc(C#N)cc4)ncnc32)[C@H](O)[C@@H]1O [Compound 82] | < 1 |
